# Source: publication PMC9106635, “Stimulation of the atypical chemokine receptor 3 (ACKR3) by a small-molecule agonist attenuates fibrosis in a preclinical liver but not lung injury model” (Cellular and Molecular Life Sciences: CMLS, 2022)
# Read-outs that look alike come from different tables or passages of the source.
# Tests used:
# hACKR3 = hACKR3 (Homo sapiens, UniProt P25106); test: β-arrestin2 recruitment assay (PathHunter CHO-K1 CXCR7 β-arrestin cell line); assay type: cell-based; design: host or cells: CHO-K1 (PathHunter CXCR7 β-arrestin cell line)
# Chain of hACKR3 (P25106 whole entry): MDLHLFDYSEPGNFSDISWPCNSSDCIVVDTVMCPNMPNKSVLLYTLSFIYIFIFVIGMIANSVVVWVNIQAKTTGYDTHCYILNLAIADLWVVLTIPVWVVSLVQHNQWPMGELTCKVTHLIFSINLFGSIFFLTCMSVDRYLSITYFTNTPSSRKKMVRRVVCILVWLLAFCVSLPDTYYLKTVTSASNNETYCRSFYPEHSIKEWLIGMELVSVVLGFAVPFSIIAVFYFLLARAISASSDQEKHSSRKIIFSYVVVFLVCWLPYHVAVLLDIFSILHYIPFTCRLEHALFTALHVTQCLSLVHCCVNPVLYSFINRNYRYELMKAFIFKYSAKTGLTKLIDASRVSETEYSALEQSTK
# Description: β-arrestin2 recruitment downstream of ACKR3 activation was analyzed using the PathHunter CHO-K1 CXCR7 β-arrestin Cell Line (93-0248C2; DiscoverX). Cells were cultured in AssayComplete™ Cell Culture Kit-107 (92-3107G; DiscoverX) at 37 °C and 5% CO2. Briefly, 20,000 cells/well were seeded in AssayComplete™ Cell Plating 2 Reagent (93-0563R2A; DiscoverX) in a white 96-well plate (100 µL/well) with clear bottom (Costar, 3610) and incubated overnight at 37 °C and 5% CO2. The next day, 10 µL/well of test compound (11 × concentrated) was added and cells were incubated for 90 min at 37 °C and 5% CO2. Compounds were tested in duplicate in a 1:4 dilution series ranging from 1000 nM to 0.06 nM final concentration. After incubation, 55 µL/well of detection reagent (PathHunter Detection kit; 93-0001; DiscoverX) was added and cells were incubated for 1 h at room temperature (RT) protected from light. Finally, luminescence was measured using a FLIPR Tetra® device (Molecular Devices, Sunnyvale, CA, USA). Four parameter non-linear curve fitting (GraphPad Prism 9.0.2) was used to determine the EC50 value for β-arrestin2 recruitment.
# [1] = tested on: fibrosis-related genes (liver mRNA); test: nCounter analysis of 52 fibrosis-related genes in liver RNA; assay type: in vivo, mouse
# Description: Total RNA was prepared from snap-frozen liver tissue (the lateral and medial right lobes and the caudate lobe; Supplementary Figure S1a) or lung tissue (cranial right lobe; Supplementary Figure S1b) after homogenization on ice in TRIZol. For quantitative qRT-PCR, cDNA was made from 0.5 μg of RNA using the GoScript reverse transcription system (Promega) according to the manufacturer's protocol. QRT-PCR was performed (for 40 cycles) with the Quantstudio3 Applied Biosystems (ABI) system using Sybr green (ABI) followed by melting curve analysis. Expression was calculated using the delta threshold cycle (ΔCT) method with Gapdh as reference gene (previously validated as stable house-keeping gene in the CCl4 model and in the bleomycin model, current study, not shown). Forward (F) and reverse (R) primer sequences were (5'-3'): […]; Col1a1: [NT]; Ackr3: [NT]; Cxcr4: [NT]; Golm1: [NT]; Lgals3: [NT]; Unc93b1: [NT]; Slc15a3: [NT]; Sec24d: [NT]; Cxcl10: [NT]; and […] Data are expressed as mean ± sem. For NanoString nCounter (NanoString, USA) analysis on liver RNA, a custom-designed panel of 52 fibrosis-related probes was used (the Nanostring probe list is shown in Supplementary Table 1). 100-500 ng of total RNA was hybridized according to the manufacturer's instructions. Data were normalized by scaling to a panel of four housekeeping genes (i.e., Hprt1, Actb, Ldh, Tbp; probes are listed in Supplementary Table 1) with a coefficient of variation of < 5% between conditions used for comparison. The scaled counts were base log2-transformed and data were expressed as fold-change versus the reference condition (CCl4 + 23% HPBCD). […] The resulting P-values were corrected for multiple testing with Benjamini-Hochberg to control the false discovery rate. P < 0.05 was considered as significant.
# [2] = tested on: bleomycin-induced lung fibrosis in C57BL/6J mice; test: Bleomycin-induced lung fibrosis model; assay type: in vivo, mouse; details: 15 mg/kg/dose SC BID, day 21, vs bleomycin + 23% HPBCD
# Description: A preclinical mouse model for bleomycin-induced lung fibrosis was performed at the Department of Metabolic Health Research, The Netherlands Organisation for Applied Scientific Research (TNO) (Leiden, The Netherlands). Thirty-eight male C57BL/6J mice were matched on body weight prior to the study and divided into three groups (experimental study design, Supplementary Figure S1b). At day 0, 10–12-week-old mice received a single oropharyngeal administration of bleomycin (0.04U/mouse) (group 2 and 3). Control mice (group 1) received phosphate buffered saline (PBS) instead. At day 0, bleomycin-treated mice received either compound 18a (15 mg/kg/dose, subcutaneous, twice daily, group 3), or its corresponding vehicle control (23% HPBCD, subcutaneous, twice daily, group 2)]. PBS-treated mice received 23% HPBCD throughout the study (subcutaneous, twice daily, group 1). At day 21, mice were sacrificed under isoflurane anesthesia and plasma samples and lung lobes were collected. As a primary endpoint the histology lung fibrosis score (modified Ashcroft score) was used based on a Masson’s Trichrome staining on cross-sections of the left lung lobe. As a secondary endpoint collagen content (hydroxyproline) was analyzed on the medial and accessory lobes by using a chromogenic assay according to the manufacturer’s instructions (QuickZyme Biosciences, Leiden, the Netherlands).
# [3] = liver d28, CCl4 + compound 18a vs. CCl4 + 23% HPBCD
smiles,measurement,setting,value
CCc1ccn2ccnc2c1N1CCCN(C(CC(N)=O)C2CCN(C(=O)C3CC4CCC3O4)CC2)CC1 (centres unmarked) [compound 18a],EC50,"hACKR3; conversion of 3.16 nM, read-out: EC50 β-arrestin2 recruitment expressed in ng/mL (converted)",3.25 nM
same,EC50,"hACKR3; mean ± SD of two independent experiments, read-out: EC50 β-arrestin2 recruitment",3.16 ± 0.12 nM
same,EC50,"hACKR3; taking into account 34% free fraction, read-out: EC50 corrected for free fraction in mouse plasma (target value) (converted)",9.95 nM
same,number of the 52 fibrosis-related genes with significantly affected expression,"[1]; CCl4-challenged livers, day 28",8
same,Fold change Adamts2 mRNA,[1]; [3],1.15
same,Fold change Anxa3 mRNA,[1]; [3],0.85
same,Fold change Arhgap25 mRNA,[1]; [3],0.87
same,Fold change Arl11 mRNA,[1]; [3],1.09
same,Fold change Arpc1b mRNA,[1]; [3],1.04
same,Fold change Axl mRNA,[1]; [3],0.96
same,Fold change C1qb mRNA,[1]; [3],0.92
same,Fold change Capg mRNA,[1]; [3],0.85
same,Fold change Ccr2 mRNA,[1]; [3],0.96
same,Fold change Ccr5 mRNA,[1]; [3],0.86
same,Fold change Ccr9 mRNA,[1]; [3],1.04
same,Fold change Cd68 mRNA,[1]; [3],0.90
same,Fold change Cd86 mRNA,[1]; [3],0.88
same,Fold change Clec4n mRNA,[1]; [3],0.77
same,Fold change Clec7a mRNA,[1]; [3],1.13
same,Fold change Col3a1 mRNA,[1]; [3],1.40
same,Fold change Col4a2 mRNA,[1]; [3],0.92
same,Fold change Col5a1 mRNA,[1]; [3],0.84
same,Fold change Cxcl10 mRNA,[1]; [3],0.74
same,Fold change Cxcl16 mRNA,[1]; [3],1.03
same,Fold change Eln mRNA,[1]; [3],1.25
same,Fold change Enc1 mRNA,[1]; [3],1.09
same,Fold change Fxyd5 mRNA,[1]; [3],0.96
same,Fold change Gdf15 mRNA,[1]; [3],1.12
same,Fold change Golm1 mRNA,[1]; [3],1.46
same,Fold change Il1rn mRNA,[1]; [3],0.76
same,Fold change Laptm5 mRNA,[1]; [3],0.90
same,Fold change Lgals3 mRNA,[1]; [3],0.58
same,Fold change Lilrb4 mRNA,[1]; [3],0.94
same,Fold change Lox mRNA,[1]; [3],1.24
same,Fold change Loxl2 mRNA,[1]; [3],1.01
same,Fold change Ly86 mRNA,[1]; [3],1.15
same,Fold change Mmp9 mRNA,[1]; [3],1.13
same,Fold change Ms4a6a mRNA,[1]; [3],1.20
same,Fold change Myo1f mRNA,[1]; [3],0.90
same,Fold change Nckap1l mRNA,[1]; [3],0.97
same,Fold change Pld4 mRNA,[1]; [3],0.93
same,Fold change Plod2 mRNA,[1]; [3],1.13
same,Fold change Rassf4 mRNA,[1]; [3],0.93
same,Fold change Sdcbp mRNA,[1]; [3],1.08
same,Fold change Sec24d mRNA,[1]; [3],1.22
same,Fold change Serpine1 mRNA,[1]; [3],0.22
same,Fold change Sla mRNA,[1]; [3],1.00
same,Fold change Slc11a1 mRNA,[1]; [3],0.88
same,Fold change Slc15a3 mRNA,[1]; [3],0.81
same,Fold change Tgfb1 mRNA,[1]; [3],0.90
same,Fold change Thbs2 mRNA,[1]; [3],1.03
same,Fold change Timp1 mRNA,[1]; [3],1.09
same,Fold change Tnc mRNA,[1]; [3],0.84
same,Fold change Trem2 mRNA,[1]; [3],1.44
same,Fold change Unc93b1 mRNA,[1]; [3],0.81
same,"development of lung fibrosis (modified Ashcroft score, hydroxyproline)",[2],did not counteract the development of fibrosis
